# Where “and” joins values, the source holds several entries; their conditions need not be identical. Equal values may be shown once.
# Tested on: OVCAR-5 complex spheroids, viability
# Assay: Anticancer human tumor OVCAR-5 cell line growth inhibition;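 also: spheroids exposed to agents for seven days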;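 as to viability, T/C: 100% = DMSO vehicle control wells viability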
# Conditions: for viability, T/C: stronger effect = lower value
# Outline: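 Complex spheroids of tumor cells with HUVEC and human MSCs, exposed to iadademstat combined with other agents. Each agent tested in half-log steps from near clinical Cmax (else 10 microM top), DMSO ≤0.25%.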
# [1] = curve of first compound, second compound 0.1 µM
# [2] = curve of first compound, second compound 0.316 µM
# [3] = curve of first compound, second compound 1 µM
# [4] = curve of first compound, second compound 3.16 µM
# [5] = curve of first compound, second compound 10 µM
# [6] = second compound 0.1 µM, first compound 0.00316 µM
# [7] = second compound 0.1 µM, first compound 0.01 µM
# [8] = second compound 0.1 µM, first compound 0.0316 µM
# [9] = second compound 0.1 µM, first compound 0.1 µM
# [10] = second compound 0.316 µM, first compound 0.00316 µM
# [11] = second compound 0.316 µM, first compound 0.01 µM
# [12] = second compound 0.316 µM, first compound 0.0316 µM
# [13] = second compound 0.316 µM, first compound 0.1 µM
# [14] = second compound 1 µM, first compound 0.00316 µM
# [15] = second compound 1 µM, first compound 0.01 µM
# [16] = second compound 1 µM, first compound 0.0316 µM
# [17] = second compound 1 µM, first compound 0.1 µM
# [18] = second compound 3.16 µM, first compound 0.00316 µM
# [19] = second compound 3.16 µM, first compound 0.01 µM
# [20] = second compound 3.16 µM, first compound 0.0316 µM
# [21] = second compound 3.16 µM, first compound 0.1 µM
# [22] = second compound 10 µM, first compound 0.00316 µM
# [23] = second compound 10 µM, first compound 0.01 µM
# [24] = second compound 10 µM, first compound 0.0316 µM
# [25] = second compound 10 µM, first compound 0.1 µM
# [26] = second compound 0.1 µM, first compound 0.000316 µM
# [27] = second compound 0.1 µM, first compound 0.001 µM
# [28] = second compound 0.316 µM, first compound 0.000316 µM
# [29] = second compound 0.316 µM, first compound 0.001 µM
# [30] = second compound 1 µM, first compound 0.000316 µM
# [31] = second compound 1 µM, first compound 0.001 µM
# [32] = second compound 3.16 µM, first compound 0.000316 µM
# [33] = second compound 3.16 µM, first compound 0.001 µM
# [34] = second compound 10 µM, first compound 0.000316 µM
# [35] = second compound 10 µM, first compound 0.001 µM
# [36] = second compound 0.1 µM, first compound 0.00949 µM
# [37] = second compound 0.1 µM, first compound 0.03 µM
# [38] = second compound 0.1 µM, first compound 0.0949 µM
# [39] = second compound 0.1 µM, first compound 0.3 µM
# [40] = second compound 0.1 µM, first compound 0.949 µM
# [41] = second compound 0.1 µM, first compound 3 µM
# [42] = second compound 0.316 µM, first compound 0.00949 µM
# [43] = second compound 0.316 µM, first compound 0.03 µM
# [44] = second compound 0.316 µM, first compound 0.0949 µM
# [45] = second compound 0.316 µM, first compound 0.3 µM
# [46] = second compound 0.316 µM, first compound 0.949 µM
# [47] = second compound 0.316 µM, first compound 3 µM
# [48] = second compound 1 µM, first compound 0.00949 µM
# [49] = second compound 1 µM, first compound 0.03 µM
# [50] = second compound 1 µM, first compound 0.0949 µM
# [51] = second compound 1 µM, first compound 0.3 µM
# [52] = second compound 1 µM, first compound 0.949 µM
# [53] = second compound 1 µM, first compound 3 µM
# [54] = second compound 3.16 µM, first compound 0.00949 µM
# [55] = second compound 3.16 µM, first compound 0.03 µM
# [56] = second compound 3.16 µM, first compound 0.0949 µM
# [57] = second compound 3.16 µM, first compound 0.3 µM
# [58] = second compound 3.16 µM, first compound 0.949 µM
# [59] = second compound 3.16 µM, first compound 3 µM
# [60] = second compound 10 µM, first compound 0.00949 µM
# [61] = second compound 10 µM, first compound 0.03 µM
# [62] = second compound 10 µM, first compound 0.0949 µM
# [63] = second compound 10 µM, first compound 0.3 µM
# [64] = second compound 10 µM, first compound 0.949 µM
# [65] = second compound 10 µM, first compound 3 µM
smiles,measurement,setting,value
CC1COCCN1c1cc(-c2ccnn2C)c2ccnc(-c3ccn[nH]3)c2n1 (stereo not drawn) + NC1CC1c1ccc(-c2cccc(O)c2)cc1,IC50,[1],31.6 nM
same,IC50,[2],33 nM
same,IC50,[3],24.6 nM
same,IC50,[4],25.2 nM
same,IC50,[5],19.9 nM
same,"viability, T/C",[6],98.8%
same,"viability, T/C",[7],79.8%
same,"viability, T/C",[8],49%
same,"viability, T/C",[9],35.6%
same,"viability, T/C","second compound 0.1 µM, first compound 0.316 µM",31.7%
same,"viability, T/C","second compound 0.1 µM, first compound 1 µM",27.9%
same,"viability, T/C",[10],105%
same,"viability, T/C",[11],79.1%
same,"viability, T/C",[12],49.6%
same,"viability, T/C",[13],36.5%
same,"viability, T/C","second compound 0.316 µM, first compound 0.316 µM",30.4%
same,"viability, T/C","second compound 0.316 µM, first compound 1 µM",27.9%
same,"viability, T/C",[14],91.3%
same,"viability, T/C",[15],72.8%
same,"viability, T/C",[16],42.3%
same,"viability, T/C",[17],33.4%
same,"viability, T/C","second compound 1 µM, first compound 0.316 µM",27.3%
same,"viability, T/C","second compound 1 µM, first compound 1 µM",25.8%
same,"viability, T/C",[18],88.9%
same,"viability, T/C",[19],75.1%
same,"viability, T/C",[20],43%
same,"viability, T/C",[21],32.8%
same,"viability, T/C","second compound 3.16 µM, first compound 0.316 µM",31.1%
same,"viability, T/C","second compound 3.16 µM, first compound 1 µM",25.3%
same,"viability, T/C",[22],95.9%
same,"viability, T/C",[23],62.1%
same,"viability, T/C",[24],42.5%
same,"viability, T/C",[25],30.4%
same,"viability, T/C","second compound 10 µM, first compound 0.316 µM",31.3%
same,"viability, T/C","second compound 10 µM, first compound 1 µM",26%
CC(C)CC(NC(=O)C(Cc1ccccc1)NC(=O)c1cnccn1)B(O)O (stereo not drawn) + NC1CCC(NC2CC2c2ccccc2)CC1,IC50,[1],7.78 nM
same,IC50,[2],8.49 nM
same,IC50,[3],7.89 nM
same,IC50,[4],7.42 nM
same,IC50,[5],6.4 nM
same,"viability, T/C",[26],92%
same,"viability, T/C",[27],100%
same,"viability, T/C",[6],84.3%
same,"viability, T/C",[7],39.5%
same,"viability, T/C",[8],16.2%
same,"viability, T/C",[9],6.2%
same,"viability, T/C",[28],97.3%
same,"viability, T/C",[29],97.9%
same,"viability, T/C",[10],87.4%
same,"viability, T/C",[11],42.6%
same,"viability, T/C",[12],16.1%
same,"viability, T/C",[13],5.03%
same,"viability, T/C",[30],88.6%
same,"viability, T/C",[31],98.8%
same,"viability, T/C",[14],85.2%
same,"viability, T/C",[15],39.9%
same,"viability, T/C",[16],15.4%
same,"viability, T/C",[17],5.03%
same,"viability, T/C",[32],79.8%
same,"viability, T/C",[33],104%
same,"viability, T/C",[18],78.6%
same,"viability, T/C",[19],39%
same,"viability, T/C",[20],13.6%
same,"viability, T/C",[21],4.87%
same,"viability, T/C",[34],84.4%
same,"viability, T/C",[35],82.3%
same,"viability, T/C",[22],73.4%
same,"viability, T/C",[23],35.1%
same,"viability, T/C",[24],10.2%
same,"viability, T/C",[25],3.83%
COc1cc(C2c3cc4c(cc3C(OC3OC5COC(C)OC5C(O)C3O)C3COC(=O)C23)OCO4)cc(OC)c1O (stereo not drawn) + NC1CC1c1ccc(-c2cccc(O)c2)cc1,IC50,[1],407 nM
same,IC50,[2],503 nM
same,IC50,[3],397 nM
same,IC50,[4],422 nM
same,IC50,[5],302 nM
same,"viability, T/C",[36],94.9%
same,"viability, T/C",[37],93.3%
same,"viability, T/C",[38],80.2%
same,"viability, T/C",[39],55.3%
same,"viability, T/C",[40],36.1%
same,"viability, T/C",[41],32.5%
same,"viability, T/C",[42],96.7%
same,"viability, T/C",[43],109%
same,"viability, T/C",[44],91.8%
same,"viability, T/C",[45],61.7%
same,"viability, T/C",[46],35.8%
same,"viability, T/C",[47],32.3%
same,"viability, T/C",[48],100%
same,"viability, T/C",[49],103%
same,"viability, T/C",[50],85.5%
same,"viability, T/C",[51],56.8%
same,"viability, T/C",[52],31.4%
same,"viability, T/C",[53],32.4%
same,"viability, T/C",[54],89.1%
same,"viability, T/C",[55],85.2%
same,"viability, T/C",[56],74.9%
same,"viability, T/C",[57],55%
same,"viability, T/C",[58],38.4%
same,"viability, T/C",[59],34.6%
same,"viability, T/C",[60],85.1%
same,"viability, T/C",[61],88.8%
same,"viability, T/C",[62],67.5%
same,"viability, T/C",[63],53.3%
same,"viability, T/C",[64],35.2%
same,"viability, T/C",[65],37%
CC(C)CC(NC(=O)C(Cc1ccccc1)NC(=O)c1cnccn1)B(O)O (stereo not drawn) + NC1CC1c1ccc(-c2cccc(O)c2)cc1,IC50,[1],7.35 nM
same,IC50,[2],6.68 nM
same,IC50,[3],6.31 nM
same,IC50,[4],4.44 nM
same,IC50,[5],4.52 nM
same,"viability, T/C",[26],111%
same,"viability, T/C",[27],103%
same,"viability, T/C",[6],75.8%
same,"viability, T/C",[7],40.9%
same,"viability, T/C",[8],14.8%
same,"viability, T/C",[9],5.74%
same,"viability, T/C",[28],111%
same,"viability, T/C",[29],98.8%
same,"viability, T/C",[10],74.6%
same,"viability, T/C",[11],37.5%
same,"viability, T/C",[12],10.7%
same,"viability, T/C",[13],3.96%
same,"viability, T/C",[30],100%
same,"viability, T/C",[31],103%
same,"viability, T/C",[14],71.6%
same,"viability, T/C",[15],35%
same,"viability, T/C",[16],10.2%
same,"viability, T/C",[17],2.99%
same,"viability, T/C",[32],101%
same,"viability, T/C",[33],70.5%
same,"viability, T/C",[18],65.7%
same,"viability, T/C",[19],32.3%
same,"viability, T/C",[20],12.6%
same,"viability, T/C",[21],3.14%
same,"viability, T/C",[34],81%
same,"viability, T/C",[35],87%
same,"viability, T/C",[22],57.4%
same,"viability, T/C",[23],27.6%
same,"viability, T/C",[24],8.96%
same,"viability, T/C",[25],1.75%
NC1CCC(NC2CC2c2ccccc2)CC1 (stereo not drawn),"viability, T/C",compound 0.1 µM,102% [middle of 25 runs]
same,"viability, T/C",compound 0.316 µM,119% and 98.5%
same,IC50,"compound alone, run of 11/29/2021",> 10000 nM
CCN(c1cc(-c2ccc(CN3CCOCC3)cc2)cc(C(=O)NCc2c(C)cc(C)[nH]c2=O)c1C)C1CCOCC1 + NC1CC1c1ccc(-c2cccc(O)c2)cc1,IC50,[1],> 3000 nM
same,IC50,[2],> 3000 nM
same,IC50,[3],> 3000 nM
same,IC50,[4],> 3000 nM
same,IC50,[5],> 3000 nM
same,"viability, T/C",[36],87.6%
same,"viability, T/C",[37],98.8%
same,"viability, T/C",[38],106%
same,"viability, T/C",[39],97%
same,"viability, T/C",[40],107%
same,"viability, T/C",[41],92.6%
same,"viability, T/C",[42],102%
same,"viability, T/C",[43],108%
same,"viability, T/C",[44],99.3%
same,"viability, T/C",[45],94.8%
same,"viability, T/C",[46],104%
same,"viability, T/C",[47],102%
same,"viability, T/C",[48],91.5%
same,"viability, T/C",[49],84.4%
same,"viability, T/C",[50],94.3%
same,"viability, T/C",[51],103%
same,"viability, T/C",[52],91.9%
same,"viability, T/C",[53],98.5%
same,"viability, T/C",[54],88.8%
same,"viability, T/C",[55],87.7%
same,"viability, T/C",[56],90.4%
same,"viability, T/C",[57],90.9%
same,"viability, T/C",[58],90.6%
same,"viability, T/C",[59],92.9%
same,"viability, T/C",[60],86.7%
same,"viability, T/C",[61],91.9%
same,"viability, T/C",[62],85.5%
same,"viability, T/C",[63],93.4%
same,"viability, T/C",[64],95.5%
same,"viability, T/C",[65],91.1%

# Reference: PubChem BioAssay AID1918956 (Molecular Pharmacology Branch, DTP, NCI, 2023)
